US9743685B2, “Mixtures having improved cooling effect” (SYMRISE AG, priority 2012, dated 2017)

Experiment: Sensory comparison of flavored formulation examples with the flavor not according to the invention
Type: in vivo

Structure (SMILES): C/C=C(/C=O)c1ccccc1 [2-phenyl-but-2-enal, 2-Phenyl-but-2-enal]
- Sensory effect compared to the flavor not according to the invention (standard chewing gum, 2% peppermint type flavor (Example 2.11)): intensified feeling of freshness together with an increased menthol taste and perception of coolness
- Sensory effect compared to the flavor not according to the invention (sugar-free chewing gum, 1% Cinnamon type flavor Cool (Example 2.10), especially in the initial phase of consumption): intensified feeling of freshness together with an increased menthol taste and perception of coolness
- Sensory effect compared to the flavor not according to the invention (toothpaste (Silica opaque), 1% peppermint type flavor Cool (Example 2.14)): fresher mouthfeel together with an increased menthol taste and perception of coolness
- Sensory effect compared to the flavor not according to the invention (toothpaste (phosphate base), 1% spearmint type flavor (Example 2.12), especially at the start of brushing): definite feeling of freshness together with an increased menthol taste and perception of coolness
- Sensory effect compared to the flavor not according to the invention (toothpaste (transparent gel), 1% cinnamon type flavor (Example 2.13)): clearer freshness profile together with an increased menthol taste and perception of coolness
